Measurements from ChEMBL document CHEMBL5149979, “Emerging small-molecule inhibitors of the Bruton's tyrosine kinase (BTK): Current development” (Eur J Med Chem, 2021).
≈ marks a conversion by molar mass, not a printed value. Values belong to the molecule of their own block, whether it stands above or below them.

What was measured:
Ramos [1] = test: Antiproliferative activity against human Ramos cells assessed as growth inhibition incubated for 72 hrs by resazurin dye based fluorescence microplate reader analysis; format: functional
Bcr/Abl fusion protein = Bcr/Abl fusion protein (Homo sapiens, UniProt P00519); test: Inhibition of BCR-ABL (unknown origin) using peptide GGEAIYAAPFKK as substrate; format: protein assay
[2] = molecular target: T1, Tyrosine-protein kinase BTK (Homo sapiens, UniProt Q06187); test: Inhibition of BTK (unknown origin) using Poly(Glu4,Tyr1) as substrate in presence of ATP by radiometric kinase assay
[3] = molecular target: T1, Tyrosine-protein kinase BTK; test: Inhibition of BTK (unknown origin) incubated for 40 mins by radiometric assay
[4] = Antiproliferative activity against human MINO cells reduction in cell viability incubated for 72 hrs by CellTiter-Glo luminescent cell viability assay; format: functional, cell-based
NAMALVA = test: Antiproliferative activity against human NAMALWA cells assessed as reduction in cell viability measured after 72 hrs by CCK-8 assay; format: functional, cell-based
Ramos [5] = test: Antiproliferative activity against human Ramos cells assessed as reduction in cell viability measured after 72 hrs by CCK-8 assay; format: functional, cell-based
U-937 [6] = test: Antiproliferative activity against human U-937 cells assessed as reduction in cell viability measured after 72 hrs by CCK-8 assay; settings: U-937, 72 h
HL-60 = test: Antiproliferative activity against human HL-60 cells assessed as reduction in cell viability measured after 72 hrs by CCK-8 assay; settings: HL-60, 72 h
[7] = molecular target: T1, Tyrosine-protein kinase BTK; test: Inhibition of BTK (unknown origin) incubated for 60 mins by ADP-Glo kinase assay
U-937 [8] = test: Induction of apoptosis in human U-937 cells assessed as […] at 40 nM incubated for 48 hrs by AnnexinV-FITC/propidium iodide staining based flow cytometry analysis relative to control; format: functional
Raji [9] = test: Antiproliferative activity against human Raji cells assessed as reduction in cell viability measured after 72 hrs by CCK-8 assay; format: functional, cell-based
Z-138 = test: Antiproliferative activity against human Z138 cells reduction in cell viability incubated for 72 hrs by CellTiter-Glo luminescent cell viability assay; settings: Z-138, 72 h
[10] = molecular target: T1, Tyrosine-protein kinase BTK; test: Inhibition of BTK (unknown origin) incubated for 10 mins by caliper mobility shift assay
DOHH-2 = test: Antiproliferative activity against human DOHH-2 cells assessed as inhibition of cell proliferation by MTT assay; format: functional, cell-based
[11] = Oral bioavailability in rat at 30 mg/kg measured upto 8 hrs; format: ADME, organism-based; settings: in vivo
HEK293 = test: Antiproliferative activity against human HEK293 cells assessed as reduction in cell viability by MTT assay; format: functional, cell-based
Rec1 = test: Antiproliferative activity against human REC1 cells assessed as inhibition of cell proliferation by MTT assay; format: functional, cell-based
[12] = Antiproliferative activity against human MINO cells assessed as inhibition of cell proliferation by MTT assay; format: functional, cell-based
OCI-Ly10 = test: Antiproliferative activity against human OCILY10 cells assessed as inhibition of cell proliferation by MTT assay; format: functional, cell-based
L02 = test: Antiproliferative activity against human L02 cells assessed as reduction in cell viability by MTT assay; format: functional, cell-based
[13] = molecular target: Epidermal growth factor receptor (Homo sapiens, UniProt P00533); test: Inhibition EGFR (unknown origin) expressed in baculovirus expression system by ELISA
[14] = molecular target: T1, Tyrosine-protein kinase BTK; test: Inhibition of BTK (unknown origin) using Poly(Glu4,Tyr1) as substrate in presence of ATP
TMD8 [15] = test: Antiproliferative activity against human TMD8 cells assessed as reduction in cell viability incubated for 72 hrs by CCK-8 assay; format: functional, cell-based; settings: TMD8, 72 h
[16] = Kinetic solubility of the compound; format: physicochemical; settings: read-out: Kinetic_solubility
TMD8 [17] = test: Antitumor activity against human TMD8 cells xenografted in SCID mouse assessed as tumor growth inhibition at 1.5 mg/kg, po bid administered daily 20 days by caliper analysis; format: functional; settings: TMD8, 480 h, time 20 day, read-out: TGI
[18] = Inhibition of recombinant human BTK cys481S mutant using Poly(Glu4,Tyr1) and ATP as substrate measured after 2 hrs by ADP-Glo kinase assay
TMD8 [19] = test: Antiproliferative activity against human TMD8 cells assessed as reduction in cell viability incubated for 96 hrs by MTT assay; format: functional, cell-based; settings: TMD8, 96 h
Raji [20] = test: Antiproliferative activity against human Raji cells assessed as reduction in cell viability incubated for 96 hrs by MTT assay; format: functional, cell-based
TMD8 [21] = test: Antitumor activity against human TMD8 cells xenografted in SCID mouse assessed as tumor growth inhibition at 15 mg/kg, po bid administered daily 20 days by caliper analysis; format: functional; settings: TMD8, 480 h, time 20 day, read-out: TGI
TMD8 [22] = test: Antitumor activity against human TMD8 cells xenografted in SCID mouse assessed as tumor growth inhibition at 3 mg/kg, po bid administered daily 20 days by caliper analysis; format: functional; settings: TMD8, 480 h, time 20 day, read-out: TGI
[23] = molecular target: T1, Tyrosine-protein kinase BTK; test: Inhibition of recombinant human wild type BTK using Poly(Glu4,Tyr1) and ATP as substrate measured after 2 hrs by ADP-Glo kinase assay

T1 sequence (Q06187 whole entry): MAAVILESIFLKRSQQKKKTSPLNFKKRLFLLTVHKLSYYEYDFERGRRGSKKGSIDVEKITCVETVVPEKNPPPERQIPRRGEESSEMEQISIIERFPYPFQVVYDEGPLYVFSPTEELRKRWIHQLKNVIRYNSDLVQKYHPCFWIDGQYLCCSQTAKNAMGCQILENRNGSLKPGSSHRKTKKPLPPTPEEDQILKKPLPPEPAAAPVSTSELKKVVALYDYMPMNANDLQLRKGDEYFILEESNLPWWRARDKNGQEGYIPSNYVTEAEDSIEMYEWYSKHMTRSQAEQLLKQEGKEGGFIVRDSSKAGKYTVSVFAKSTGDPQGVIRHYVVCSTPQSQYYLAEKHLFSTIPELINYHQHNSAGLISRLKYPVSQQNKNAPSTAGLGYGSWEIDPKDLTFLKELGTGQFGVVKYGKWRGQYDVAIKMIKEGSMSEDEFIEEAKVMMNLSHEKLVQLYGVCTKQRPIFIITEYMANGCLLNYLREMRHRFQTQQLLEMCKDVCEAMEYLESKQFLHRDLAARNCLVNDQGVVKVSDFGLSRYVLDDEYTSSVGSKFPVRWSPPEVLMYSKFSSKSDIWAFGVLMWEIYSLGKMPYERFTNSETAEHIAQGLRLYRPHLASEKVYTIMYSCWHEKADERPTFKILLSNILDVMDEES
Chain of Epidermal growth factor receptor (P00533 whole entry): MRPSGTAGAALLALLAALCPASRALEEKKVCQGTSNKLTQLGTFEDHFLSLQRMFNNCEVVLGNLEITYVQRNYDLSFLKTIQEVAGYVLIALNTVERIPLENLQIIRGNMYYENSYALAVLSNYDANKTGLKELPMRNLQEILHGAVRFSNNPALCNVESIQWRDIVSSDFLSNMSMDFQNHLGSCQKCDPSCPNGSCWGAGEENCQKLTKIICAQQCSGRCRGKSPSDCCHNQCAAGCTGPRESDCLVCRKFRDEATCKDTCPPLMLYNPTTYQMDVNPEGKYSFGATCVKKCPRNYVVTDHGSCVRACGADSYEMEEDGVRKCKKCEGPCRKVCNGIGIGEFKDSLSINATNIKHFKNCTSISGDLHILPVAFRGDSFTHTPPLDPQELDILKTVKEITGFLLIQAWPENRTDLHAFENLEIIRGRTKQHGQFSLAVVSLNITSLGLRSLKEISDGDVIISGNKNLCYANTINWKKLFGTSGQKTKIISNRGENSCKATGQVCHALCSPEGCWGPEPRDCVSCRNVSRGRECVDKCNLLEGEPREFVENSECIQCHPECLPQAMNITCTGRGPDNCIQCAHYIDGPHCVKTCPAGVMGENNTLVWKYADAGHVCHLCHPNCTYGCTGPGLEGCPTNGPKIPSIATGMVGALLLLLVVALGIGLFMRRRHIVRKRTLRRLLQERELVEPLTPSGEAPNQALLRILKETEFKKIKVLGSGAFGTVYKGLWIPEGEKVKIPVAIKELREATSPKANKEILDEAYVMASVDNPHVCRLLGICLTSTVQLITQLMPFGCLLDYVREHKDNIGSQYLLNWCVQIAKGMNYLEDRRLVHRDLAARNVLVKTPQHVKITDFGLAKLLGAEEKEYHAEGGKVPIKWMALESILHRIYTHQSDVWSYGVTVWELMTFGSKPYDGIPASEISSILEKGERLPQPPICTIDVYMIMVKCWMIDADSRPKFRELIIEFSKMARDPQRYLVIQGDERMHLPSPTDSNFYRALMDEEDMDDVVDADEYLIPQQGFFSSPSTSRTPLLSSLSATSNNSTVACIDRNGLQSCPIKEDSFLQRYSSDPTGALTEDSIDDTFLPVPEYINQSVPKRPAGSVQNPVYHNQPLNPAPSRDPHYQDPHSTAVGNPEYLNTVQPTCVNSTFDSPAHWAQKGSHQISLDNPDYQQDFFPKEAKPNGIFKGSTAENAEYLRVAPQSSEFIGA
Chain of Bcr/Abl fusion protein (P00519 whole entry, the tested form may be a part): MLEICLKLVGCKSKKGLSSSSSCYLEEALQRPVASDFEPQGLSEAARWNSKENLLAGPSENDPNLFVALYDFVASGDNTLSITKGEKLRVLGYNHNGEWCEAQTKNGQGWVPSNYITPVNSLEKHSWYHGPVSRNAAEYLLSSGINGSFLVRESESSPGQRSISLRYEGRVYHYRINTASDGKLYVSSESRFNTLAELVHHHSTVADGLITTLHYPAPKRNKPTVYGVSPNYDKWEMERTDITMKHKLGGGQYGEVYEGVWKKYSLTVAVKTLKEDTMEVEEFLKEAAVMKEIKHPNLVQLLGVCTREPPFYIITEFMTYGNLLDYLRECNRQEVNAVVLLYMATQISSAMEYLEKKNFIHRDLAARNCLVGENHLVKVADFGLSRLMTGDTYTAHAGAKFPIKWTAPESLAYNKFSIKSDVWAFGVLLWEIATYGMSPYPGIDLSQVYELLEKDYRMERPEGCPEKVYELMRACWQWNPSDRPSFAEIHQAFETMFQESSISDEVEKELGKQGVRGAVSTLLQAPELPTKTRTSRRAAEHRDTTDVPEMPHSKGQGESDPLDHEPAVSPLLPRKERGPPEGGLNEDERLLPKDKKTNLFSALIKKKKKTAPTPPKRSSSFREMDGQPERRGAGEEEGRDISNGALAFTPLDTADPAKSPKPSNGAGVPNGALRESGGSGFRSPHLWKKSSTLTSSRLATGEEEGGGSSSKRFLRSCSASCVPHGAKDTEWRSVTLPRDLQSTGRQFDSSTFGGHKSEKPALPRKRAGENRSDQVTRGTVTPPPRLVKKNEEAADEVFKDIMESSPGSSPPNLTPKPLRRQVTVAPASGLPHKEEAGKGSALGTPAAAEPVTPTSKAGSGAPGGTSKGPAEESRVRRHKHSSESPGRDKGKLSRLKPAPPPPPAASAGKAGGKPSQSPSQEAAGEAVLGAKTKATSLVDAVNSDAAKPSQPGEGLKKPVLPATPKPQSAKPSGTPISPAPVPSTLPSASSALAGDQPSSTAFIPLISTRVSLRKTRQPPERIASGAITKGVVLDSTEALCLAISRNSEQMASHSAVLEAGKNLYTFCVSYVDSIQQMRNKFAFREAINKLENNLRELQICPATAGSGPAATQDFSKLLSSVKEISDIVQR
Chain of Bcr/Abl fusion protein (P11274 whole entry, further chain, the tested form may be a part): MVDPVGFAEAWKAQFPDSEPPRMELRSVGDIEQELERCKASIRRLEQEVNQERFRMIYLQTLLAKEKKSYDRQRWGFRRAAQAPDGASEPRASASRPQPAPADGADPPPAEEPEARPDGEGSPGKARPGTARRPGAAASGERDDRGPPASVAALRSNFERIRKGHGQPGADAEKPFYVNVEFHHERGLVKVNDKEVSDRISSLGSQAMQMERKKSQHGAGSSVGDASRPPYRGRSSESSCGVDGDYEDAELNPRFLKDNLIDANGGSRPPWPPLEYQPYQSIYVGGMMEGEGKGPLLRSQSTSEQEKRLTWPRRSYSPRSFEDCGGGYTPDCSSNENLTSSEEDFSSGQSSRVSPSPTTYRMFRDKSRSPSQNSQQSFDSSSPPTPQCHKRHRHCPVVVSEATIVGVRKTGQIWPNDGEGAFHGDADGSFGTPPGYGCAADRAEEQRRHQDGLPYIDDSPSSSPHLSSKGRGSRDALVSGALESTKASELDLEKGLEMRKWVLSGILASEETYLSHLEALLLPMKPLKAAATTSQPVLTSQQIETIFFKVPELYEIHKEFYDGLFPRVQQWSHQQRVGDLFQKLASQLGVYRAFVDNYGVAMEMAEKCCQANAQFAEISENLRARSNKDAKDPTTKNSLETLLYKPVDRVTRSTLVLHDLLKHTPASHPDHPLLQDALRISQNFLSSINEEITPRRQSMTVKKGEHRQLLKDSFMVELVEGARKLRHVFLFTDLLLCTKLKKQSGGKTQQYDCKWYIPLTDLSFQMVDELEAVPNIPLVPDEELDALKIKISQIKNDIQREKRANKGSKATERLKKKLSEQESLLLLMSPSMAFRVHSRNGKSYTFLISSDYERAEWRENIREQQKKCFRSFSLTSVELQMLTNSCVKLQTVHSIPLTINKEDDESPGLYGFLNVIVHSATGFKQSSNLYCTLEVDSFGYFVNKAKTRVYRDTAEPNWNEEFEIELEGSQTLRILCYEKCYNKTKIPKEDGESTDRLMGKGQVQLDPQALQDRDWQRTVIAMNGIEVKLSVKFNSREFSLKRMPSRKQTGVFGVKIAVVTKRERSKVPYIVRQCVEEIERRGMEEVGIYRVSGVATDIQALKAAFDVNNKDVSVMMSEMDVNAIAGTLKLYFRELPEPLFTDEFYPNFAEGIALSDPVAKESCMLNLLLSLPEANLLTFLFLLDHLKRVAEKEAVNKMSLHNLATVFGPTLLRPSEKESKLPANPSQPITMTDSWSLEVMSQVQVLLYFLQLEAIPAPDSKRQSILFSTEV

- GI50 (Ramos [1]): 4.1 µM
- IC50 (Bcr/Abl fusion protein): 580 nM
- IC50 [2]: 2650 nM
SMILES: CN1CCN(c2ccc(Nc3nc(Nc4ccc(F)c(F)c4)c4ncn(CC5CC5)c4n3)cc2F)CC1

- IC50 [3]: 82 nM
SMILES: Nc1ccc(Cn2nc(-c3ccc(Oc4ccccc4)cc3)c3c(N)ncnc32)cc1
- IC50 [4]: 13.9 µM

- GI50 (Ramos [1]): 4.63 µM
- IC50 [2]: 580 nM
SMILES: CN1CCN(c2ccc(Nc3nc(Nc4ccc(F)c(F)c4)c4ncn(CC5CC5)c4n3)cc2)CC1

- IC50 [13]: 47.4 nM
- IC50 [14]: 7 nM
SMILES: C=CC(=O)Nc1cccc(N2C(=O)OC(C)c3cnc(Nc4ccc(N5CCN(C)CC5)cc4OC)nc32)c1 (stereo not given)
- IC50 (TMD8 [15]): 28 nM

- IC50 [18]: 14 nM
- IC50 (Raji [20]): 13.2 µM
- IC50 [23]: 1 nM
SMILES: C=CC(=O)N1CC2CC(n3nc(-c4ccc(C(=O)Nc5ccccn5)cc4)c4c(N)ncnc43)CC2C1 (stereo not given)
- inhibition in vivo at 1.5 mg/kg (TMD8 [17]): 10%
- IC50 (TMD8 [19]): 0.78 nM
- inhibition in vivo at 15 mg/kg (TMD8 [21]): 88%
- inhibition in vivo at 3 mg/kg (TMD8 [22]): 50%

Continued, molecule first:

SMILES: Nc1ncnc2c1c(-c1ccc(Oc3ccccc3)cc1)nn2Cc1cccc(NC(=O)CCl)c1
- IC50 [3]: 27 nM
- IC50 [4]: 0.9 µM

SMILES: Nc1cccc(Cn2nc(-c3ccc(Oc4ccccc4)cc3)c3c(N)ncnc32)c1
- IC50 [3]: 75 nM
- IC50 [4]: 9.5 µM

SMILES: C=CC(=O)Nc1cccc(Nc2nc(Nc3ccc(Cn4cc(C)nc4CC)cc3)ncc2Cl)c1
- IC50 (NAMALVA): < 10.8 µM
- IC50 (Ramos [5]): < 10.8 µM
- IC50 (U-937 [6]): 38 nM
- IC50 (HL-60): 109 nM
- IC50 [7]: 17.7 nM
- Activity (U-937 [8]): 55%
- IC50 (Raji [9]): < 10.8 µM

SMILES: Nc1ncnc2c1c(-c1ccc(Oc3ccccc3)nc1)nn2C1CCCN(C(=O)CCl)C1 (stereo not given)
- IC50 [3]: 36 nM
- IC50 [4]: 0.4 µM
- IC50 (Z-138): 400 nM

SMILES: C=C(Cl)C(=O)N1CCC[C@H](n2nc(-c3ccc(Oc4ccccc4)cc3)c3c(N)ncnc32)C1
- IC50 [10]: 2.5 nM
- IC50 (DOHH-2): 220 nM
- bioavailability [11]: 6%
- IC50 (HEK293): 5.46 µM
- IC50 (Rec1): 10 nM
- IC50 [12]: 560 nM
- IC50 (OCI-Ly10): 160 nM
- IC50 (L02): 15.9 µM

SMILES: C=CC(=O)Nc1cccc(N2C(=O)OCc3cnc(Nc4ccc(N5CCN(C)CC5)cc4OC)nc32)c1
- IC50 [13]: 28.8 nM
- IC50 [14]: 4.7 nM

SMILES: C=CC(=O)Nc1cccc(Nc2nc(Nc3ccc(Cn4cc(C)nc4CC)cc3)ncc2F)c1
- IC50 (NAMALVA): < 10.8 µM
- IC50 (Ramos [5]): < 10.8 µM
- IC50 (U-937 [6]): 106 nM
- IC50 (HL-60): 116 nM
- IC50 [7]: 42.4 nM
- IC50 (Raji [9]): < 10.8 µM

SMILES: C=CS(=O)(=O)N1CCC(Cn2cc(-c3ccc4c(c3)OCO4)c3c(N)ncnc32)CC1
- IC50 [14]: 1.32 nM
- solubility kinetic [16]: 100 µg/mL (≈ 226 µM)

SMILES: C=CC(=O)N1CCCC(Cn2cc(-c3ccc(Oc4ccccc4)cc3)c3c(N)ncnc32)C1 (single isomer, unassigned)
- IC50 [14]: 1.71 nM
